Source: patent US11530186B2, “Inhibitors for the β-catenin / T-cell factor protein-protein interaction” (H. LEE MOFFITT CANCER CENTER AND RESEARCH INSTITUTE, INC., priority 2018, dated 2022)
Like-named read-outs stand apart in the source and are kept apart here.

Experiments:
[1] = system: SW480 cells; experiment: MTS cell viability assay, SW480; format: cell-based; settings: mean ± SD (n = 3)
Protocol: (§1) MTS Cell Viability Assay. Colorectal cancer cells (SW480 and HCT116), TNBC cells (MDA-MB-231, MDA-MB-468, and BT-20), and lung cancer A549 cells were seeded in 96-well plates at 5×10^3 cells/well, maintained overnight at 37° C., and incubated with the tested compounds at various concentrations. Cell viability was monitored after 72 h using a freshly prepared mixture of 1 part phenazine methosulfate (PMS, Sigma) solution (0.92 mg/mL) and 19 parts 3-(4,5-dimethylthiazol-2-yl)-5-(3-carboxymethoxyphenyl)-2-(4-sulfophenyl)-2H-tetrazolium (MTS, Promega) solution (2 mg/mL). Cells were incubated in 10 μL of this solution at 37° C. for 3 h, and A490 was measured. The effect of each compound is expressed as the concentration required to reduce A490 by 50% (IC50) relative to DMSO-treated cells. Experiments were performed in triplicate.

[2] = system: A549 cells; experiment: MTS cell viability assay, A549; format: cell-based; settings: Homo sapiens, 72 h, mean ± SD (n = 3), Table 4, read-out: MTS cell viability IC50, Wnt normal A549
Protocol: as §1

[3] = target: T1, β-catenin/Tcf protein-protein interaction (Homo sapiens, UniProt P35222); experiment: FP competitive inhibition assay; format: binding
T1 construct: Wild-type β-catenin (residues 138-781) were cloned into a pET-28b vector; 6×histidine (C); made in house; host or cells: E. coli BL21 DE3
T1 sequence (P35222 138-781): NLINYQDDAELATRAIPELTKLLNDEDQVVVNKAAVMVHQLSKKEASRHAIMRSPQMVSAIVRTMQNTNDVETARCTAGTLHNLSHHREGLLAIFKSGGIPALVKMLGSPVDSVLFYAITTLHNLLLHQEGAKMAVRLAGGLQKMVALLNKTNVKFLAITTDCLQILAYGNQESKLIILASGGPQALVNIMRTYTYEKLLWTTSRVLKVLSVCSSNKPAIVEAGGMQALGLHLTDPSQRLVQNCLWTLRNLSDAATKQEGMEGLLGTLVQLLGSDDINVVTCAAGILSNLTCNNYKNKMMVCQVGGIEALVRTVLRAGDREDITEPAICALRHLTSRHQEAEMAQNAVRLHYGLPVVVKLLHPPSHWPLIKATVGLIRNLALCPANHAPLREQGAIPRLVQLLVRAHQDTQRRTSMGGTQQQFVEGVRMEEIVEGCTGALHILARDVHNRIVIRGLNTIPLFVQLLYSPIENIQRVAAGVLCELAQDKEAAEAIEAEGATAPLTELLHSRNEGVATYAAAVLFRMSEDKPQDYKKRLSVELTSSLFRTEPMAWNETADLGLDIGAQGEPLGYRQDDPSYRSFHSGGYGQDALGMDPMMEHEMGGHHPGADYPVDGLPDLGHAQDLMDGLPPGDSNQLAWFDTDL
Outline: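 His-tagged human β-catenin (residues 138-781, E. coli-expressed) at 10 nM with 2.5 nM fluorescein-labeled Tcf4 (7-51) in PBS-type buffer with bovine γ-globulin and 0.01% Triton X-100. Compounds added, 1.5 h at 4 °C, 1% DMSO, before fluorescence polarization read. IC50 by nonlinear fit; Ki derived from IC50.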

[4] = system: Wnt/β-catenin transactivation; experiment: Wnt-responsive TOPFlash luciferase reporter assay, β-catenin-activated HEK cells; format: cell-based; settings: HEK293, read-out: TOPFlash IC50 ± SD, β-catenin-activated HEK293, 24 h treatment, mean ± SD (n = 3), read-out: TOPFlash IC50 ± SD, β-catenin-activated HEK239
Protocol: Cell Transfection and Luciferase Assay. FuGENE 6 (E2962, Promega) in the 96-well plate format was used for the transfection of HEK293 cells according to the manufacturer's instructions. HEK293 cells were co-transfected with 45 ng of the TOPFlash or FOPFlash reporter gene, and 135 ng of pcDNA3.1-β-catenin. Cells were cultured in DMEM and 10% fatal bovine serum (FBS) at 37° C. for 24 h, and different concentrations of inhibitors were then added. After 24 h, the luciferase reporter activity was measured using the Dual-Glo system (E2940, Promega). Normalized luciferase activity in response to the treatment with the inhibitors was compared with that obtained from the cells treated with DMSO. Experiments were performed in triplicate.

[5] = system: Wnt/β-catenin transactivation; experiment: Wnt-responsive TOPFlash luciferase reporter assay, SW480; format: cell-based; settings: Homo sapiens, mean ± SD (n = 3), Table 6
[6] = system: HCT116 cells; experiment: MTS cell viability assay, HCT116; format: cell-based; settings: Homo sapiens, HCT-116; 72 h; mean ± SD (n = 3); Table 5; read-out: MTS cell viability IC50, Wnt hyperactive cancer cells HCT116
Protocol: as §1

[7] = Homo sapiens, SW480, 72 h, Table 4, read-out: MTS cell viability IC50, Wnt hyperactive SW480 Cells (converted)
[8] = Assay 1, mean ± SD (n = 3), read-out: Ki ± SD, Assay 1
[9] = Assay 2, mean ± SD (n = 3), read-out: Ki ± SD, Assay 2
[10] = Assay 3, mean ± SD (n = 3), read-out: Ki ± SD, Assay 3
[11] = Assay 4, mean ± SD (n = 3), read-out: Ki ± SD, Assay 4
[12] = Homo sapiens, SW480, 72 h, Table 5, read-out: MTS cell viability IC50, Wnt hyperactive cancer cells SW480

COC(=O)c1ccc2c(c1)c(CCc1ccc(Cl)cc1)c(CCc1nc3ccccc3[nH]1)n2CCc1nn[nH]n1 [Compound 34, Methyl 2-(2-(1H-benzo[d]imidazol-2-yl)ethyl)-1-(2-(2H-tetrazol-5-yl)ethyl)-3-(4-chlorophenethyl)-1H-indole-5-carboxylate]
IC50 [1, 7]: 69 ± 11 µM
IC50 [2]: 120 ± 44 µM

COC(=O)c1ccc2c(c1)c(CCc1ccc(Cl)cc1)c(CCc1nc3cc(OC)ccc3s1)n2CCc1nn[nH]n1 [Compound 35, Methyl 1-(2-(2H-tetrazol-5-yl)ethyl)-3-(4-chlorophenethyl)-2-(2-(5-methoxybenzo[d]thiazol-2-yl)ethyl)-1H-indole-5-carboxylate]
Ki [3, 8]: 4.1 ± 1.1 µM
IC50 ([1]; 72 h, Table 4, read-out: MTS cell viability IC50, Wnt hyperactive SW480 Cells (converted)): 3.2 µM
IC50 [1, 7]: 3.1 ± 1.8 µM
IC50 [2]: 13 ± 5.9 µM
IC50 ([4]; Table 6): 11 ± 2.3 µM
IC50 [5]: 4.3 ± 1.2 µM

O=C(NCc1ccc(F)cc1)c1ccc2c(c1)c(CCc1ccc(F)cc1)c(CCc1nc3ccccc3s1)n2CCc1nn[nH]n1 [Compound 44, 1-(2-(2H-tetrazol-5-yl)ethyl)-2-(2-(benzo[d]thiazol-2-yl)ethyl)-N-(4-fluorobenzyl)-3-(4-fluoro-phenethyl)-1H-indole-5-carboxamide]
Ki [3, 8]: 1.6 ± 0.37 µM
Ki [3, 9]: 0.35 ± 0.15 µM
Ki [3, 10]: 1.3 ± 0.37 µM
Ki [3, 11]: 0.92 ± 0.06 µM
IC50 [1, 7]: 12 ± 1.4 µM
IC50 [2]: 42 ± 5.8 µM
IC50 ([4]; Table 6): 42 ± 5.8 µM
IC50 [5]: 12 ± 1.3 µM

COc1ccc2sc(CCc3c(CCc4ccc(Cl)cc4)c4cc(C(=O)NCc5cnccn5)ccc4n3CCc3nn[nH]n3)nc2c1 [Compound 58, 1-(2-(2H-tetrazol-5-yl)ethyl)-3-(4-chlorophenethyl)-2-(2-(5-methoxybenzo[d]thiazol-2-yl)ethyl)-N-(pyrazin-2-ylmethyl)-1H-indole-5-carboxamide]
Ki [3, 8]: 2 ± 0.29 µM
Ki [3, 9]: 7.6 ± 0.94 µM
IC50 [1, 12]: 19 ± 1.8 µM
IC50 [6]: 12 ± 1.8 µM

COc1ccc2sc(CCc3c(CCc4ccc(Cl)cc4)c4cc(C(=O)NCc5csc(C)n5)ccc4n3CCc3nn[nH]n3)nc2c1 [Compound 60, 1-(2-(2H-tetrazol-5-yl)ethyl)-3-(4-chlorophenethyl)-2-(2-(5-methoxybenzo[d]thiazol-2-yl)ethyl)-N-((2-methylthiazol-4-yl)methyl)-1H-indole-5-carboxamide]
Ki [3, 8]: 0.93 ± 0.092 µM
Ki [3, 9]: 4.7 ± 0.28 µM
IC50 [1, 12]: 14 ± 1.9 µM
IC50 [6]: 18 ± 2.8 µM

COc1ccc2sc(CCc3c(CCc4ccc(Cl)cc4)c4cc(C(=O)NCc5ccno5)ccc4n3CCc3nn[nH]n3)nc2c1 [Compound 61, 1-(2-(2H-tetrazol-5-yl)ethyl)-3-(4-chlorophenethyl)-N-(isoxazol-5-ylmethyl)-2-(2-(5-methoxybenzo[d]thiazol-2-yl)ethyl)-1H-indole-5-carboxamide]
Ki [3, 8]: 1 ± 0.094 µM
Ki [3, 9]: 2.9 ± 0.24 µM
IC50 [1, 12]: 35 ± 4.3 µM
IC50 [6]: 40 ± 5.3 µM

COc1ccc2sc(CCc3c(CCc4ccc(Cl)cc4)c4cc(C(=O)NCc5ccon5)ccc4n3CCc3nn[nH]n3)nc2c1 [Compound 62, 1-(2-(2H-tetrazol-5-yl)ethyl)-3-(4-chlorophenethyl)-N-(isoxazol-3-ylmethyl)-2-(2-(5-methoxybenzo[d]thiazol-2-yl)ethyl)-1H-indole-5-carboxamide]
Ki [3, 8]: 3.1 ± 0.18 µM
Ki [3, 9]: 7.6 ± 0.55 µM
IC50 [1, 12]: 21 ± 2.1 µM
IC50 [6]: 28 ± 3.8 µM

COc1ccc2sc(CCc3c(CCc4ccc(Cl)cc4)c4cc(C(=O)OCc5ccc(Cl)cc5)ccc4n3CCc3nn[nH]n3)nc2c1 [Compound 70, 4-Chlorobenzyl 1-(2-(2H-tetrazol-5-yl)ethyl)-3-(4-chlorophenethyl)-2-(2-(5-methoxybenzo-[d]thiazol-2-yl)ethyl)-1H-indole-5-carboxylate]
Ki [3, 8]: 2.6 ± 0.57 µM
Ki [3, 9]: 0.22 ± 0.06 µM
Ki [3, 10]: 2.6 ± 0.32 µM
IC50 [1, 7]: 160 ± 17 µM
IC50 [2]: 310 ± 27 µM

Cc1ccc(CCc2c(-c3ccsc3)n(CCc3nn[nH]n3)c3ccc(C(=O)O)cc23)cc1 [Compound 78, 1-(2-(2H-tetrazol-5-yl)ethyl)-3-(4-methylphenethyl)-2-(thiophen-3-yl)-1H-indole-5-carboxylic acid]
Ki [3, 8]: 0.4 ± 0.14 µM
Ki [3, 9]: 0.97 ± 0.14 µM
Ki [3, 10]: 0.25 ± 0.079 µM
Ki [3, 11]: 0.36 ± 0.07 µM
Ki ([3]; Assay 5, mean ± SD (n = 3), read-out: Ki ± SD, Assay 5): 0.23 µM
IC50 [1, 12]: > 400 µM
IC50 [6]: > 400 µM

Cc1ccc(CCc2c(-c3ccsc3)n(CCc3nn[nH]n3)c3ccc(C(=O)NO)cc23)cc1 [Compound 90, 1-(2-(2H-tetrazol-5-yl)ethyl)-N-hydroxy-3-(4-methylphenethyl)-2-(thiophen-3-yl)-1H-indole-5-carboxamide]
Ki [3, 8]: 0.34 ± 0.043 µM
Ki [3, 9]: 0.24 ± 0.043 µM
IC50 [1, 12]: 115 ± 22 µM
IC50 [6]: 133 ± 4.1 µM

Cc1ccc(CCc2c(-c3ccsc3)n(CCc3nn[nH]n3)c3ccc(C(=O)NOC4CCCCO4)cc23)cc1 (centres unmarked) [Compound 92, 1-(2-(2H-tetrazol-5-yl)ethyl)-3-(4-methylphenethyl)-N-((tetrahydro-2H-pyran-2-yl)oxy)-2-(thiophen-3-yl)-1H-indole-5-carboxamide]
Ki [3, 8]: 10 ± 1.6 µM
IC50 [1, 12]: 81 ± 17 µM
IC50 ([4]; Table 7): 50 ± 5.7 µM

Cc1ccc(CCc2c(-c3ccsc3)n(CCc3nn[nH]n3)c3ccc(C(=O)NCc4ccon4)cc23)cc1 [Compound 93, 1-(2-(2H-tetrazol-5-yl)ethyl)-N-(isoxazol-3-ylmethyl)-3-(4-methylphenethyl)-2-(thiophen-3-yl)-1H-indole-5-carboxamide]
Ki [3, 8]: 7.2 ± 0.77 µM
Ki [3, 9]: 7.4 ± 0.23 µM
Ki [3, 10]: 13 ± 1.3 µM
IC50 [1, 12]: 36 ± 3.9 µM
IC50 [6]: 44 ± 5.4 µM

Cc1ccc(CCc2c(-c3csc(C(F)F)c3)n(CCc3nn[nH]n3)c3ccc(C(=O)NCc4ccon4)cc23)cc1 [Compound 94, 1-(2-(2H-tetrazol-5-yl)ethyl)-2-(5-(difluoromethyl)thiophen-3-yl)-N-(isoxazol-3-ylmethyl)-3-(4-methylphenethyl)-1H-indole-5-carboxamide]
Ki [3, 8]: 2.7 ± 0.26 µM
Ki [3, 9]: 4.9 ± 0.36 µM
Ki [3, 10]: 26 ± 2.7 µM
IC50 [1, 12]: 32 ± 3.6 µM
IC50 [6]: 46 ± 5.3 µM
IC50 ([4]; Table 7): 9.9 ± 1.5 µM
